Assays:
TXNIP mRNA [1] = assay: TXNIP mRNA in CD14+ monocytes from type 2 diabetic donors (RT-qPCR); assay type: cell-based, human; conditions: CD14+ monocytes of T2D donors, 5 uM, 45 hours, ex vivo
Procedure: FIG. 20. Several lead compounds suppress TXNIP mRNA in T2D monocytes. CD14^+ monocytes were isolated from T2D patient peripheral blood mononuclear cells (PBMCs) and cultured in RPMI 1640 medium with 5 uM of C30 or C38 for 45 hours. Total RNA was collected. RT-PCR was performed in triplicates and data shown are the mean±SEM. Statistical analysis was performed using one-way ANOVA: *p<0.0001.
Anti-inflammatory (protective) effects of lead compounds in monocytes isolated from peripheral blood obtained from type 2 diabetic subjects. In accordance with an approved IRB protocol and our published methods, we isolated CD14+ monocytes from the peripheral blood of two donors with documented type 2 diabetes (T2D). These monocytes were cultured in vitro with vehicle, 5 uM C30 or C38, and levels of human TXNIP transcript assessed by RT-qPCR.

human islets = assay: Human islet viability by FDA/PI staining under high glucose plus cytokines; assay type: cell-based; conditions: HG/cytokine cocktail, 24 hr, 5 uM compound
Procedure: FIG. 19. Lead compounds enhance viability in human islets and protect them from apoptosis. 200 IEQ human islets (Hu 1183) were cultured in PIM(R)® medium containing NG (5.8 mM glucose) or HG (25 mM glucose), and mixture of TNFα (20 ng/ml), IL1β (20 ng/ml), and IFNγ (200 ng/ml) for 24 hours with or without C30 or C38. Islets were collected, washed with PBS once and stained with FDA and PI for 5 minutes and visualized with a Keyence All-in-One Fluorescence Microscope (BZ-X800E).
Lead compounds increase viability of human islets. […] Fluorescein diacetate/propidium iodide (FDA/PI) staining was employed to assess human islet viability.

TXNIP mRNA [2] = assay: TXNIP mRNA in human islets under high glucose plus cytokines; assay type: cell-based; conditions: 25 mM glucose + TNFα, IL1β, IFNγ, 40 hours
Procedure: FIGS. 18A-18B. C30 and C38 compounds protect cells from apoptosis in human islets. 100 IEQ human islets (Hu 1178) were cultured in PIM(R)© containing NG (5.8 mM glucose) or HG (25 mM glucose), and TNFα (20 ng/ml), IL1β (20 ng/ml), IFNγ (200 ng/ml) for 40 hours with or without lead compounds. Total RNA was prepared and RT PCR performed. FIG. 18A: BCL2/BAX ratios are the mean±SEM from triplicates. Statistical analysis was performed for each column vs. HG, 3 cytokines using one-way ANOVA: *p<0.002. FIG. 18B: TXNIP relative mRNA levels. Data shown are the mean±SEM from triplicates. Statistical analysis was performed for each column vs. HG, 3 cytokines using one-way ANOVA: **p<0.0001.
We mimicked T1D conditions in vitro (25 mM glucose, […], […] and […]) to induced apoptosis in human islets (obtained from the Southern California Islet Cell Resources Center at City of Hope). This high glucose/cytokine cocktail was able to induce apoptosis in cultured human islets as indicated by a decrease in the BCL2/BAX ratio (FIG. 18A).

SOD1 mRNA = SOD1 mRNA in primary human pancreatic islets under 25 mM glucose (RT-PCR); assay type: cell-based; conditions: human pancreatic islets (500 IEQ), 2.5 uM, 48 h
Procedure: FIGS. 12A-12B. […] Human pancreatic islets (500 IEQ) were cultured with PIM(R) (Prodo Labs) medium under 25 mM glucose with 2.5 uM of the indicated compounds for 48 h. Total RNA was collected. RT-PCR was performed in triplicate and data shown are the mean±SEM. Statistical analysis was performed using one-way ANOVA: *p<0.0001. […] Human pancreatic islets (500 IEQ) were cultured with PIM(R) (Prodo Labs) under 25 mM glucose with 2.5 uM of the indicated compounds for 48 h. Total RNA was collected. RT-PCR was performed in triplicate and data shown are the mean+SEM. Statistical analysis was performed using one-way ANOVA: *p<0.0001.
Testing lead compounds in human pancreatic islets. To further explore the effects of the lead compounds as possible therapies in diabetes, we conducted translational studies in primary human pancreatic islets (obtained from the City of Hope islet isolation center).
RNA extraction and quantitative RT-PCR. RNA was extracted using the Direct-zol™ RNA MiniPrep Plus (Zymo Research). […] Diluted cDNA was quantified using real-time PCR performed with Power SYBR Green qPCR MasterMix (Applied Biosystem) and 7500 real-time PCR system (Applied Biosystems). […]

SMILES	expression of TXNIP (TXNIP mRNA [1])	human islet viability (FDA/PI staining) (human islets)	TXNIP expression increased during apoptosis (TXNIP mRNA [2])	SOD1 mRNA levels (SOD1 mRNA)
COc1cc(N2CC[C@@H](c3ccc4ccccc4c3)[C@H](O)C2)nc(N)n1 [Compound C30]	can inhibit the expression of TXNIP	protected human islets from death	significantly ameliorated	does not alter SOD1 mRNA levels
c1ccc(CCNc2ncnc3c2oc2ccccc23)cc1 [Compound C38]	can inhibit the expression of TXNIP	protected human islets from death	significantly ameliorated	does not alter SOD1 mRNA levels
